From patent publication US20100099642A1, “TGF-BETA STIMULANT AND FURTHER AGENT TO REDUCE SIDE EFFECTS” (TCP Innovations Limited, priority 2007, published 2010)

What was measured:
tgfb2 mRNA = tgfb2 mRNA level by quantitative PCR in human aortic vascular smooth muscle cells; assay type: cell-based; details: 24 hrs, normalised to TBP, vs vehicle
Protocol: (1995) Cardiovasc. Res. 29:848-55). […] The cells were then incubated for either 24 hrs or 72 hrs depending on the experiment. All treatment conditions were established in triplicate. The level of mRNA for tgfb1, tgfb2 and tgfb3 were estimated by quantitative PCR. The media was removed and RNA was carefully prepared using the Ambion RNAqueous4PCR kit (Ambion#1914) in accordance with the manufacturer's instructions. The purity of the RNA and the quantity was assessed spectrophotometrically. […] This analysis results in both a gel-like image as well as electrophoretic data. Indications of RNA degradation are: (a) decreasing ratio of ribosomal bands (b) additional peaks bellow the ribosomal bands (c) Decrease in overall RNA signal (d) shift towards shorter fragments. […] Next, the RNA was converted to cDNA using the ABI High-Capacity cDNA Archive Kit, in accordance with manufacturer's instructions. The qPCR assay was then set up as follow: all cDNA samples were diluted to 180 μl total volume using Molecular grade water. Samples were vortexed to ensure thorough mixing. cDNA was aliquoted into ABI 384 well plates using a multi-channel pipette, 4.5 μl of sample into each well. Samples were assayed in triplicate (that is, nine determinations in total were made for each condition, being three separate assays on each of three replicate culture wells). The assay mix and Universal Master Mix were prepared and aliquoted across the 384 well plates 5.5 μl in each well, using a single channel pipette. The final composition of each reaction (10 μl) being: Primer/Probe assay mix (×20)=0.5 μl; Universal Master Mix=5 μl; cDNA=4.5 μl. […] Quantitative PCR was performed using several primer/probe sets. […] In all quantitative PCR experiments, several additional controls were included: firstly, a control for each sample is run with no reverse transcription to ensure the mRNA sample is not contaminated with genomic DNA (although the manual design probe/primer sets were all selected to cross an exon/exon boundary, ensuring no detectable amplicon is produced from genomic DNA templates). […]

DBA/1 mice = test: collagen-induced arthritis, footpad thickness in DBA/1 mice; assay type: in vivo, mouse; details: Tamoxifen 1 mg/kg/day p.o, aspirin 30 mg/kg/day p.o, from the booster injection onwards
Protocol: Collagen-induced arthritis was induced in adult male DBA/1 mice as previously described (Courtenay et al. (1980) Nature 283:666-8). Adult (12 week old) male DBA/1 mice were divided into groups of six animals. Mice received 100 μg per mouse of bovine type II collagen (Sigma) in Freunds Complete Adjuvant (FCA) by the subcutaneous route, while a control group received an identical injection of type I collagen in FCA. Twenty-one days later, all groups of mice received an intraperitoneal booster injection containing 100 μg per mouse of the same collagen type as previously, but in the absence of adjuvant. […] Foodpad thickness was determined each day using a digital caliper EC1507 (Moore & Wright) accurate to 0.01 mm. The thickness of each footpad was determined three times on each day by a single operator blind to the treatment condition of the mouse, and the footpad thickness of each mouse on each day was reported as the mean for the three measurements for all four paws. Errors represent the standard error of the mean among the six animals in each group.

| SMILES | Level of tgfb2 mRNA, estimated by qPCR (tgfb2 mRNA; 10 μM A) | Level of tgfb2 mRNA, estimated by qPCR (tgfb2 mRNA; 33 μM A) | Level of tgfb2 mRNA, estimated by qPCR (tgfb2 mRNA; 100 μM A) | reduction of maximal collagen-II induced footpad swelling (DBA/1 mice) |
| --- | --- | --- | --- | --- |
| CC(=O)Oc1ccccc1C(=O)O [Aspirin, acetylsalicylic acid] | 0.92 ± 0.10 fold-change | 1.00 ± 0.17 fold-change | 1.03 ± 0.16 fold-change |  |
| CC/C(=C(\c1ccccc1)c1ccc(OCCN(C)C)cc1)c1ccccc1 [Tamoxifen] |  |  |  | 36% |
